Structures can show the parent of a compound that is named as a salt.
target: T1, CCR5 (Homo sapiens, UniProt P51681); test: CCR5-Mediated CCF Assay; type: cell-based; conditions: Hela-R5 cells (gp160) co-cultured 24 hrs with CEM-NKr-CCR5-Luc cells, luciferase readout
T1 construct: host or cells: CEM-NKr-CCR5-Luc
Experimental: CCF assay was performed as described before (C. Ji, J. Zhang, N. Cammack and S. Sankuratri 2006 J. Biomol. Screen. in press). Hela-R5 cells (express gp160 from R5-tropic virus and HIV-1 T at) were plated in 384 well white culture plates (BD Bioscience, Palo Alto, Calif.) at 7.5×10^3 cells per well in phenol red-free Dulbecco's Modified Eagle Medium (DMEM) supplemented with 10% FBS, 1× Pen-Strep, 300 μg/ml G418, 100 μg/ml hygromycin, and 1 μg/ml doxycycline (Dox) (BD Bioscience, Palo Alto, Calif.), using Multimek (Beckman, Fullerton, Calif.) and incubated at 37° C. overnight to induce the expression of gp160. Ten μl diluted compounds in medium containing 5% DMSO were added to the cells, followed by the addition of CEM-NKr-CCR5-Luc (obtained from NIH AIDS Research & Reference Reagents Program) that expresses CD4 and CCR5 and carries a HIV-2 long terminal repeat (LTR)-driven luciferase reporter gene at 1.5×10^4 cells/15 μl/well and incubated for 24 hrs. At the end of co-culture, 15 μl of Steady-Glo luciferase substrate was added into each well, and the cultures were sealed and gently shaken for 45 min. The luciferase activity were measured for 10 sec per well as luminescence by using 16-channel TopCount NXT (PerkinElmer, Shelton, Conn.) with 10 min dark adaptation and the readout is count per second (CPS). For the drug interaction experiments, small molecule compounds or antibodies were serially diluted in serum-free and phenol red-free RPMI containing 5% dimethyl sulfoxide (DMSO) (CalBiochem, La Jolla, Calif.) and 1× Pen-Strep. Five μl each of the two diluted compound or mAb to be tested for drug-drug interactions were added to the Hela-R5 cells right before the addition of target cells.

T1 sequence (P51681 whole entry): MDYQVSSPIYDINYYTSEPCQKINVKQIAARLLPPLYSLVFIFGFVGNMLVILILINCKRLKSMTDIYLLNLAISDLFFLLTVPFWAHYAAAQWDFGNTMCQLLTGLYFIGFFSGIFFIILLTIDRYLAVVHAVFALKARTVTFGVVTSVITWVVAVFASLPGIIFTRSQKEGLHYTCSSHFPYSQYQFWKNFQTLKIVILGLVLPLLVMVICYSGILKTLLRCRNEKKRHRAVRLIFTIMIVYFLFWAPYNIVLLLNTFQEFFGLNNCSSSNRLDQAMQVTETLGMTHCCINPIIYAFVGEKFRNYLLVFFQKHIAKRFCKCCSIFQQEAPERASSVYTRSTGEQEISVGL

Row | IC50 [nM] | Compound
1 | < 0.3 | Cc1nc(NS(C)(=O)=O)nc(C)c1C(=O)N1CC2CN(CC[C@H](NC(=O)C3CCCC3)c3ccccc3)CC2C1 (stereo partly drawn) [Compound I-42, Cyclopentanecarboxylic Acid {(S)-3-[5-(2-methanesulfonylamino-4,6-dimethyl-pyrimidine-5-carbonyl)-hexahydro-pyrrolo[3,4-c]pyrrol-2-yl]-1-phenyl-propyl}-amide]
2 | < 0.3 | Cc1nc(Oc2ccc(C(=O)OCc3ccccc3)cc2)nc(C)c1C(=O)N1CC2CN(CC[C@H](NC(=O)C3CCCC3)c3ccccc3)CC2C1 (stereo partly drawn) [Compound I-7, 4-(5-{5-[(S)-3-(Cyclopentanecarbonyl-amino)-3-phenyl-propyl]-hexahydro-pyrrolo[3,4-c]pyrrole-2-carbonyl}-4,6-dimethyl-pyrimidin-2-yloxy)-benzoic acid benzyl ester]
3 | 0.4 | COc1nc(C)c(C(=O)N2CC3CN(CC[C@H](NC(=O)C4CCCC4)c4ccccc4)CC3C2)c(C)n1 (stereo partly drawn) [Compound I-19, Cyclopentanecarboxylic Acid {(S)-3-[5-(2-methoxy-4,6-dimethyl-pyrimidine-5-carbonyl)-hexahydro-pyrrolo[3,4-c]pyrrol-2-yl]-1-phenyl-propyl}-amide]
4 | 1.1 | Cc1cc(=O)n(C)c(C)c1C(=O)N1CC2CN(CC[C@H](NC(=O)C3CCC(F)(F)CC3)c3ccccc3)CC2C1 (stereo partly drawn) [III-15, 4,4-difluoro-cyclohexanecarboxylic acid {(S)-1-phenyl-3-[5-(1,2,4-trimethyl-6-oxo-1,6-dihydro-pyridine-3-carbonyl)-hexahydro-pyrrolo[3,4-c]pyrrol-2-yl]-propyl}-amide]
5 | < 0.3 | Cc1nn(-c2ccc(C(F)(F)F)cn2)c(C)c1C(=O)N1CC2CN(CC[C@H](NC(=O)C3CCOC3)c3cccc(F)c3)CC2C1 (stereo partly drawn) [II-3, Tetrahydro-furan-3-carboxylic acid [(S)-3-{5-[3,5-dimethyl-1-(5-trifluoromethyl-pyridin-2-yl)-1H-pyrazole-4-carbonyl]-hexahydro-pyrrolo[3,4-c]pyrrol-2-yl}-1-(3-fluoro-phenyl)-propyl]-amide]
6 | 0.5 | Cc1nc(OCC(=O)OCc2ccccc2)nc(C)c1C(=O)N1CC2CN(CC[C@H](NC(=O)C3CCCC3)c3ccccc3)CC2C1 (stereo partly drawn) [Compound I-3, (5-{5-[(S)-3-(Cyclopentanecarbonyl-amino)-3-phenyl-propyl]-hexahydro-pyrrolo[3,4-c]pyrrole-2-carbonyl}-4,6-dimethyl-pyrimidin-2-yloxy)-acetic Acid Benzyl Ester]
7 | 0.9 | Cc1nc(Oc2ccc(C(=O)O)cc2)nc(C)c1C(=O)N1CC2CN(CC[C@H](NC(=O)C3CCCC3)c3ccccc3)CC2C1 (stereo partly drawn) [Compound I-8, 4-(5-{5-[(S)-3-(cyclopentanecarbonyl-amino)-3-phenyl-propyl]-hexahydro-pyrrolo[3,4-c]pyrrole-2-carbonyl}-4,6-dimethyl-pyrimidin-2-yloxy)-benzoic acid trifluoro-acetate salt]
8 | < 0.3 | CCOC(=O)c1cccc(Oc2nc(C)c(C(=O)N3CC4CN(CC[C@H](NC(=O)C5CCCC5)c5ccccc5)CC4C3)c(C)n2)c1 (stereo partly drawn) [Compound I-9, 3-(5-{5-[(S)-3-(Cyclopentanecarbonyl-amino)-3-phenyl-propyl]-hexahydro-pyrrolo[3,4-c]pyrrole-2-carbonyl}-4,6-dimethyl-pyrimidin-2-yloxy)-benzoic acid ethyl ester]
9 | 1 | COC(=O)[C@@H](Oc1nc(C)c(C(=O)N2CC3CN(CC[C@H](NC(=O)C4CCCC4)c4ccccc4)CC3C2)c(C)n1)c1ccccc1 (stereo partly drawn) [Compound I-16, (S)-(5-{-5-[(S)-3-(Cyclopentanecarbonyl-amino)-3-phenyl-propyl]-hexahydro-pyrrolo[3,4-c]pyrrole-2-carbonyl}-4,6-dimethyl-pyrimidin-2-yloxy)-phenyl-acetic acid methyl ester]
10 | 1.4 | Cc1cc(=O)n(C)c(C)c1C(=O)N1CC2CN(CC[C@H](NC(=O)C3CCCC3)c3ccccc3)CC2C1 (stereo partly drawn) [III-13, Cyclopentanecarboxylic acid {(S)-1-phenyl-3-[-5-(1,2,4-trimethyl-6-oxo-1,6-dihydro-pyridine-3-carbonyl)-hexahydro-pyrrolo[3,4-c]pyrrol-2-yl]-propyl}-amide]

Row | Compound | IC50 [nM]
11 | Cc1nc(Oc2cccc(C(=O)O)c2)nc(C)c1C(=O)N1CC2CN(CC[C@H](NC(=O)C3CCCC3)c3ccccc3)CC2C1 (stereo partly drawn) [Compound I-10, 3-(5-{5-[(S)-3-(cyclopentanecarbonyl-amino)-3-phenyl-propyl]-hexahydro-pyrrolo[3,4-c]pyrrole-2-carbonyl}-4,6-dimethyl-pyrimidin-2-yloxy)-benzoic acid, trifluoro acetic acid salt] | 1.1

tested on: not given; test: not given; conditions: not given

Row | melting point [°C] | Compound
12 | 88.2 to 89.1 | CCOC(=O)Cn1c(C)c(C(=O)N2CC3CN(CCCN(C(=O)C4CCN(C(C)=O)CC4)c4ccc(C)c(Cl)c4)CC3C2)c(C)cc1=O (stereo not drawn) [III-1, [5-(5-{3-[(1-Acetyl-piperidine-4-carbonyl)-(3-chloro-4-methyl-phenyl)-amino]-propyl}-hexahydro-pyrrolo[3,4-c]pyrrole-2-carbonyl)-4,6-dimethyl-2-oxo-2H-pyridin-1-yl]-acetic acid ethyl ester]

Source: patent US20070191335A1, “Heterocylic antiviral compounds” (priority 2006, published 2007)
